What all share (format): biochemical
One experiment has as its target T1, recombinant PRL-1 (Homo sapiens, UniProt Q93096).
T1 construct: 6xHis (N, cleaved yes); made in house; host or cells: E. coli One Shot BL21 Star
T1 sequence (Q93096 1-173): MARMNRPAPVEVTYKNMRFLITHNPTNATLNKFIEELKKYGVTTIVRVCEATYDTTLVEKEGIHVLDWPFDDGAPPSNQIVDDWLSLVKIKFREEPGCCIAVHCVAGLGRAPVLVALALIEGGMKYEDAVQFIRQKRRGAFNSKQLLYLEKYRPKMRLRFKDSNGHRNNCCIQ
As to the kind of experiment: In vitro phosphatase assay (DiFMUP hydrolysis), PRL-1. Also: test concentration or dose not given here.

A further experiment addresses T2, recombinant PRL-2 (Homo sapiens, UniProt Q12974).
T2 construct: 6xHis (N, cleaved yes); made in house; host or cells: E. coli One Shot BL21 Star
T2 sequence (Q12974 1-167): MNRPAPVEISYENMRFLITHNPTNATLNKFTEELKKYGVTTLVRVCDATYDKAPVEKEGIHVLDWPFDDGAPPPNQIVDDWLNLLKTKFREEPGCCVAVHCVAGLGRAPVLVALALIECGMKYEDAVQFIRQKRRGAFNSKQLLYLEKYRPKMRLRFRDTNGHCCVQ
Nature of the experiment: In vitro phosphatase assay (DiFMUP hydrolysis), PRL-2.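 Also: PRL-2 activity read as DiFMUP hydrolysis after 20 min at room temperature with drug, enzyme first pre-reduced at 4 °C for 20 min.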

The next experiment deals with T3, recombinant PRL-3 (Homo sapiens, UniProt O75365).
T3 construct: 6xHis (N, cleaved yes); made in house; host or cells: E. coli One Shot BL21 Star
Nature of the experiment: In vitro phosphatase assay (DiFMUP hydrolysis), PRL-3. Also: test concentration or dose not given here.

The mark [1] stands for this setting: FDA-approved drug screen, compared to DMSO.
Where [2] appears, read: FDA-approved drug screen, activity compared to DMSO.

SMILES strings stand for the structures. Where a name gives a salt, the structure may show the parent alone. Read-outs that look alike come from different tables or passages of the source.

T3 sequence (O75365 whole entry): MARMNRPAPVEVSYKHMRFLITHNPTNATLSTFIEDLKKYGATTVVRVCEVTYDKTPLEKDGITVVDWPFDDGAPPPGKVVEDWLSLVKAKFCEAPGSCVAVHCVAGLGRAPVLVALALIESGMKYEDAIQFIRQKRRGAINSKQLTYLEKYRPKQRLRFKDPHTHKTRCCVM

Regarding `CN(CCOc1ccc(CC2SC(=O)NC2=O)cc1)c1ccccn1` (stereo not drawn) [Rosiglitazone], the “% Phosphatase Activity (compared to DMSO) PRL-1” value on recombinant PRL-1 (setting [1]) was 90%. Further, the “% Phosphatase Activity (compared to DMSO) PRL-2” value at recombinant PRL-2 (setting [1]) was determined as 111%. Moreover, the “% Phosphatase Activity (compared to DMSO) PRL-3” value on recombinant PRL-3 (setting [1]) came out at 79%.
On the same counts, the results for `COc1cc2nccc(Oc3ccc(NC(=O)NC4CC4)c(Cl)c3)c2cc1C(N)=O` [Lenvatinib (E7080)] are 96%, 85% and 87%.
Turning to `O=[N+]([O-])c1ccc(O)c2ncccc12` [Nitroxoline], the “% Phosphatase Activity (compared to DMSO) PRL-1” value on recombinant PRL-1 (setting [1]) amounted to 58%. Also, at recombinant PRL-2 (setting [1]), the “% Phosphatase Activity (compared to DMSO) PRL-2” value was 48%. In addition, the “% Phosphatase Activity (compared to DMSO) PRL-3” value on recombinant PRL-3 (setting [1]) was 49%.
The corresponding values for `Nc1nc(F)nc2c1ncn2[C@@H]1O[C@H](CO)[C@@H](O)[C@@H]1O` [Fludarabine] are 110%, 119% and 94%.
For `C[C@H](Cn1cnc2c(N)ncnc21)OCP(=O)(O)O` [Tenofovir], on recombinant PRL-1 (setting [2]), the “% Phosphatase Activity (compared to DMSO) PRL-1” value worked out at 103%. For the same compound, the “% Phosphatase Activity (compared to DMSO) PRL-2” value on recombinant PRL-2 (setting [2]) stood at 120%. Further, at recombinant PRL-3 (setting [2]), the “% Phosphatase Activity (compared to DMSO) PRL-3” value stood at 100%.
With `C[C@]1(c2nc3c(C(N)=O)cccc3[nH]2)CCCN1` [Veliparib (ABT-888)], the “% Phosphatase Activity (compared to DMSO) PRL-1” value at recombinant PRL-1 (setting [2]) is recorded as 108%. The “% Phosphatase Activity (compared to DMSO) PRL-2” value at recombinant PRL-2 (setting [2]) amounted to 99%. For the same compound, the “% Phosphatase Activity (compared to DMSO) PRL-3” value on recombinant PRL-3 (setting [2]) is 83%.
For `CO[C@H]1C[C@@H]2CC[C@@H](C)[C@@](O)(O2)C(=O)C(=O)N2CCCC[C@H]2C(=O)O[C@H]([C@H](C)C[C@@H]2CC[C@@H](O)[C@H](OC)C2)CC(=O)[C@H](C)/C=C(\C)[C@@H](O)[C@@H](OC)C(=O)[C@H](C)C[C@H](C)/C=C/C=C/C=C/1C` [Rapamycin (Sirolimus)], the “% Phosphatase Activity (compared to DMSO) PRL-1” value at recombinant PRL-1 (setting [1]) stood at 88%. Further, the “% Phosphatase Activity (compared to DMSO) PRL-2” value at recombinant PRL-2 (setting [1]) is recorded as 89%. Besides, the “% Phosphatase Activity (compared to DMSO) PRL-3” value on recombinant PRL-3 (setting [1]) worked out at 75%.
For the compound `CCn1c(=O)c(-c2cc[nH]n2)cc2c(C)nc(N)nc21` [Voxtalisib (XL765, SAR245409)], at recombinant PRL-1 (setting [2]), the “% Phosphatase Activity (compared to DMSO) PRL-1” value turned out to be 7254%. The “% Phosphatase Activity (compared to DMSO) PRL-2” value on recombinant PRL-2 (setting [2]) was found to be 5267%. Further, the “% Phosphatase Activity (compared to DMSO) PRL-3” value on recombinant PRL-3 (setting [2]) came to 4492%.
As for `Cc1ccc(NC(=O)c2ccc(CN3CC[C@H](N(C)C)C3)c(C(F)(F)F)c2)cc1Nc1nccc(-c2cncnc2)n1` [Bafetinib (INNO-406)], at recombinant PRL-1 (setting [1]), the “% Phosphatase Activity (compared to DMSO) PRL-1” value is listed as 97%. Further, at recombinant PRL-2 (setting [1]), the “% Phosphatase Activity (compared to DMSO) PRL-2” value is recorded as 105%. The “% Phosphatase Activity (compared to DMSO) PRL-3” value at recombinant PRL-3 (setting [1]) is given as 76%.
The corresponding values for `CC1(C)S[C@@H]2[C@H](NC(=O)[C@H](NC(=O)N3CCNC3=O)c3ccccc3)C(=O)N2[C@H]1C(=O)O` [Azlocillin sodium salt] are 100%, 112% and 85%.
The corresponding values for `COc1cc(/C=C/C(=O)CC(=O)/C=C/c2ccc(O)c(OC)c2)ccc1O` [Curcumin] are 78%, 77% and 85%.
On the same counts, the results for `CCOc1ccc2nc3cc(N)ccc3c(N)c2c1` [Ethacridine lactate monohydrate] are 246%, 215% and 201%.
As for `CO/N=C(\C(=O)N[C@@H]1C(=O)N2C(C(=O)OCOC(=O)C(C)(C)C)=C(/C=C\c3scnc3C)CS[C@H]12)c1csc(N)n1` [Cefditoren Pivoxil], the “% Phosphatase Activity (compared to DMSO) PRL-1” value at recombinant PRL-1 (setting [1]) was 88%. The “% Phosphatase Activity (compared to DMSO) PRL-2” value on recombinant PRL-2 (setting [1]) turned out to be 94%. Further, the “% Phosphatase Activity (compared to DMSO) PRL-3” value on recombinant PRL-3 (setting [1]) was 113%.
`Cc1cc(O)cc(C)c1Cl` [Chloroxylenol]: the “% Phosphatase Activity (compared to DMSO) PRL-1” value at recombinant PRL-1 (setting [1]) is 93%. For the same compound, the “% Phosphatase Activity (compared to DMSO) PRL-2” value on recombinant PRL-2 (setting [1]) was 112%. Besides, on recombinant PRL-3 (setting [1]), the “% Phosphatase Activity (compared to DMSO) PRL-3” value came out at 92%.
On the same counts, the results for `O=C(O)c1ccc2c(c1)nc(Nc1cccc(Cl)c1)c1ccncc12` [CX-4945 (Silmitasertib)] are 85%, 81% and 86%.
The corresponding values for `Clc1ccc(COC(Cn2ccnc2)c2ccc(Cl)cc2Cl)c(Cl)c1` (stereo not drawn) [Miconazole Nitrate] are 98%, 93% and 92%.
On the same counts, the results for `CNC(=O)c1ccc(N2C(=S)N(c3ccc(C#N)c(C(F)(F)F)c3)C(=O)C2(C)C)cc1F` [Enzalutamide (MDV3100)] are 90%, 89% and 71%.
As for `CC1(C)[C@H](C(=O)O)N2C(=O)C[C@H]2S1(=O)=O` [Sulbactam], the “% Phosphatase Activity (compared to DMSO) PRL-1” value on recombinant PRL-1 (setting [2]) came to 95%. In addition, the “% Phosphatase Activity (compared to DMSO) PRL-2” value at recombinant PRL-2 (setting [2]) was 91%. Besides, on recombinant PRL-3 (setting [2]), the “% Phosphatase Activity (compared to DMSO) PRL-3” value worked out at 81%.
For the compound `Cc1cccc(C)c1OCC(=O)N[C@@H](Cc1ccccc1)[C@@H](O)C[C@H](Cc1ccccc1)NC(=O)[C@H](C(C)C)N1CCCNC1=O` [Lopinavir], the “% Phosphatase Activity (compared to DMSO) PRL-1” value at recombinant PRL-1 (setting [1]) was determined as 90%. The “% Phosphatase Activity (compared to DMSO) PRL-2” value at recombinant PRL-2 (setting [1]) is given as 101%. The “% Phosphatase Activity (compared to DMSO) PRL-3” value on recombinant PRL-3 (setting [1]) was found to be 62%.
For the compound `Nc1nc(F)nc2c1ncn2[C@@H]1O[C@H](COP(=O)(O)O)[C@@H](O)[C@@H]1O` [Fludarabine Phosphate], the “% Phosphatase Activity (compared to DMSO) PRL-1” value on recombinant PRL-1 (setting [1]) was determined as 97%. On recombinant PRL-2 (setting [1]), the “% Phosphatase Activity (compared to DMSO) PRL-2” value was 91%. Further, at recombinant PRL-3 (setting [1]), the “% Phosphatase Activity (compared to DMSO) PRL-3” value turned out to be 70%.
The corresponding values for `Oc1c(I)cc(Cl)c2cccnc12` [5-Chloro-8-hydroxy-7-iodoquinoline] are 96%, 90% and 71%.
On the same counts, the results for `O=C1O[C@H](CO)[C@@H](O)[C@H](O)[C@H]1O` [Gluconolactone] are 103%, 98% and 82%.
For the compound `C[C@]12CC[C@H]3[C@@H](CCC4=CC(=O)CC[C@@H]43)[C@@H]1CC[C@@H]2O` [Nandrolone], on recombinant PRL-1, the “% Phosphatase Activity (compared to DMSO) PRL-1” value is listed as 93%. Moreover, the “% Phosphatase Activity (compared to DMSO) PRL-2” value on recombinant PRL-2 stood at 93%. Moreover, on recombinant PRL-3, the “% Phosphatase Activity (compared to DMSO) PRL-3” value stood at 78%.
On to `CCCCc1nc(Cl)c(CO)n1Cc1ccc(-c2ccccc2-c2nnn[n-]2)cc1.[K+]` [Losartan Potassium (DuP 753)], for which the “% Phosphatase Activity (compared to DMSO) PRL-1” value on recombinant PRL-1 (setting [1]) was 94%. On recombinant PRL-2 (setting [1]), the “% Phosphatase Activity (compared to DMSO) PRL-2” value worked out at 93%. In addition, at recombinant PRL-3 (setting [1]), the “% Phosphatase Activity (compared to DMSO) PRL-3” value is recorded as 71%.
On the same counts, the results for `Nc1ccn([C@@H]2O[C@H](CO)[C@@H](O)C2(F)F)c(=O)n1` [Gemcitabine HCl] are 93%, 78% and 94%.
The corresponding values for `CNCCc1ccccn1.Cl.Cl` [Betahistine 2HCl] are 93%, 96% and 87%.
On the same counts, the results for `OCCN(CCO)c1nc(N2CCCCC2)c2nc(N(CCO)CCO)nc(N3CCCCC3)c2n1` [Dipyridamole] are 182%, 258% and 219%.
In the case of `O=C(O)c1cc(=O)[nH]c(=O)[nH]1.O=C(O)c1cc(=O)[nH]c(=O)[nH]1` [Orotic acid (6-Carboxyuracil)], the “% Phosphatase Activity (compared to DMSO) PRL-1” value on recombinant PRL-1 (setting [1]) turned out to be 106%. For the same compound, at recombinant PRL-2 (setting [1]), the “% Phosphatase Activity (compared to DMSO) PRL-2” value worked out at 109%. Further, the “% Phosphatase Activity (compared to DMSO) PRL-3” value on recombinant PRL-3 (setting [1]) was 95%.
On the same counts, the results for `CO/N=C(\C(=O)N[C@@H]1C(=O)N2C(C(=O)O)=C(CSC(=O)c3ccco3)CS[C@H]12)c1csc(N)n1.Cl` [Ceftiofur HCl] are 107%, 104% and 84%.
On the same counts, the results for `CCN[C@H]1CN(CCCOC)S(=O)(=O)c2sc(S(N)(=O)=O)cc21` [Brinzolamide] are 92%, 110% and 81%.
Take `CCC(=O)NS(=O)(=O)c1ccc(-c2c(-c3ccccc3)noc2C)cc1` [Parecoxib]: on recombinant PRL-1 (setting [1]), the “% Phosphatase Activity (compared to DMSO) PRL-1” value stood at 98%. Also, at recombinant PRL-2 (setting [1]), the “% Phosphatase Activity (compared to DMSO) PRL-2” value was found to be 84%. For the same compound, the “% Phosphatase Activity (compared to DMSO) PRL-3” value at recombinant PRL-3 (setting [1]) is listed as 74%.
The corresponding values for `CN1CC[C@H](c2c(O)cc(O)c3c(=O)cc(-c4ccccc4Cl)oc23)[C@H](O)C1` [Flavopiridol (Alvocidib)] are 92%, 82% and 68%.
As to `OC(c1ccccc1)(c1ccccc1)C1CCNCC1` [Azacyclonol], the “% Phosphatase Activity (compared to DMSO) PRL-1” value on recombinant PRL-1 (setting [1]) is reported as 109%. In addition, the “% Phosphatase Activity (compared to DMSO) PRL-2” value at recombinant PRL-2 (setting [1]) is recorded as 127%. For the same compound, the “% Phosphatase Activity (compared to DMSO) PRL-3” value on recombinant PRL-3 (setting [1]) came out at 96%.

The values above are taken from article PMC8119466, “A screen of FDA-approved drugs identifies inhibitors of protein tyrosine phosphatase 4A3 (PTP4A3 or PRL-3)” (Scientific Reports, 2021).
